{
  "source": "patent US20190093170A1",
  "about": "“USE OF TRANSLATIONAL PROFILING TO IDENTIFY TARGET MOLECULES FOR THERAPEUTIC TREATMENT” (THE REGENTS OF THE UNIVERSITY OF CALIFORNIA, priority 2013, published 2019)",
  "tested_on": "PC3 human prostate cancer cells",
  "experiment": "Ribosome profiling: translational efficiency (ribosome footprint vs RNA-seq read density);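 note: Per-gene footprint-to-mRNA density ratio averaged per codon over the coding sequence, scaled so the median gene equals 1.0 after excluding regulated genes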",
  "assay_type": "cell-based",
  "details": "for Rapamycin TrlEff: 3-hour treatment with rapamycin (50 nM) in PC3 cells",
  "experimental": "Given the critical role for mTOR in prostate cancer, PC3 human prostate cancer cells, in which mTOR is constitutively hyperactivated, were used to delineate translationally controlled gene expression networks upon complete or partial mTOR inhibition. Ribosome profiling was optimized to assess quantitatively ribosome occupancy genome-wide in cancer cells.\nCells were subsequently treated with cycloheximide (100 μg ml^−1; Sigma) and detergent lysis was performed in the dish. The lysate was treated with DNase and clarified, and a sample was taken for RNA-seq analysis. Lysates were subjected to ribosome footprinting by nuclease treatment. Ribosome-protected fragments were purified, and deep sequencing libraries were generated from these fragments, as well as from poly(A) mRNA purified from non-nuclease-treated lysates. These libraries were analyzed by sequencing on an Illumina GAII.\nRibosome footprint and RNA-seq sequencing reads were aligned against a library of transcripts from the UCSC Known Genes database GRCh37/hg19. The first 25 nucleotides of each read were aligned using Bowtie and this initial alignment was then extended to encompass the full fragment-derived portion of the sequencing read while excluding the linker sequence. Read density profiles were then constructed for the canonical transcript of each gene, using only reads with 0 or 1 total mismatches between the read sequence and the reference sequence, comprised of the transcript fragment followed by the linker sequence. Footprint reads were assigned to an A site nucleotide at position +15 to +17 of the alignment, based on the total fragment length; mRNA reads were assigned to the first nucleotide of the alignment. The average read density per codon was then computed for the coding sequence of each transcript, excluding the first 15 and last 5 codons, which can display atypical ribosome accumulation.\nAverage read density was used as a measure of mRNA abundance (RNA-seq reads) and of protein synthesis (ribosome profiling reads). For most analyses, genes were filtered to require at least 256 reads in the relevant RNA-seq samples. Translational efficiency was computed as the ratio of ribosome footprint read density to RNA-seq read density, scaled to normalize the translational efficiency of the median gene to 1.0 after excluding regulated genes (log 2 fold-change+1.5 after normalizing for the all-gene median). Changes in protein synthesis, mRNA abundance and translational efficiency were similarly computed as the ratio of read densities between different samples, normalized to give the median gene a ratio of 1.0. This normalization corrects for differences in the absolute number of sequencing reads obtained for different libraries.",
  "data": [
    {"smiles": "CO[C@H]1C[C@@H]2CC[C@@H](C)[C@@](O)(O2)C(=O)C(=O)N2CCCC[C@H]2C(=O)O[C@H]([C@H](C)C[C@@H]2CC[C@@H](O)[C@H](OC)C2)CC(=O)[C@H](C)/C=C(\\C)[C@@H](O)[C@@H](OC)C(=O)[C@H](C)C[C@H](C)/C=C/C=C/C=C/1C", "note": "[Rapamycin, rapamycin]", "values": [
      {"measurement": "Rapamycin TrlEff", "setting": "gene ACD", "value": 2.06},
      {"measurement": "TrlEff", "setting": "gene ACTG1", "value": "−0.07"},
      {"measurement": "TrlEff", "setting": "gene AGRN", "value": 0.51},
      {"measurement": "TrlEff", "setting": "gene AHCY", "value": "−0.23"},
      {"measurement": "TrlEff", "setting": "gene ALKBH7", "value": 0.28},
      {"measurement": "TrlEff", "setting": "gene AP2A1", "value": "−0.04"},
      {"measurement": "TrlEff", "setting": "gene ARD1A", "value": 0.01},
      {"measurement": "TrlEff", "setting": "gene ATP5G2", "value": "−0.28"},
      {"measurement": "Rapamycin TrlEff", "setting": "gene C17orf28", "value": 1.66},
      {"measurement": "TrlEff", "setting": "gene C21orf66", "value": "−0.09"},
      {"measurement": "Rapamycin TrlEff", "setting": "gene CCNA1", "value": 1.81},
      {"measurement": "TrlEff", "setting": "gene CCNI", "value": "−0.45"},
      {"measurement": "TrlEff", "setting": "gene CD44", "value": "−0.46"},
      {"measurement": "TrlEff", "setting": "gene CIRBP", "value": 0.10},
      {"measurement": "TrlEff", "setting": "gene CLPTM1", "value": 0.26},
      {"measurement": "TrlEff", "setting": "gene COL6A2", "value": 0.43},
      {"measurement": "TrlEff", "setting": "gene CRTAP", "value": "−1.17"},
      {"measurement": "Rapamycin TrlEff", "setting": "gene DDX51", "value": 1.68},
      {"measurement": "Rapamycin TrlEff", "setting": "gene DGCR2", "value": 1.69},
      {"measurement": "TrlEff", "setting": "gene ECSIT", "value": 0.41},
      {"measurement": "Rapamycin TrlEff", "setting": "gene EEF1A1", "value": "−1.57"},
      {"measurement": "TrlEff", "setting": "gene EEF1A2", "value": "−0.03"},
      {"measurement": "TrlEff", "setting": "gene EEF1D", "value": "−0.84"},
      {"measurement": "TrlEff", "setting": "gene EEF1G", "value": "−1.15"},
      {"measurement": "TrlEff", "setting": "gene EEF2", "value": "−1.12"},
      {"measurement": "TrlEff", "setting": "gene EIF3H", "value": "−0.79"},
      {"measurement": "TrlEff", "setting": "gene EIF3L", "value": "−0.85"},
      {"measurement": "TrlEff", "setting": "gene EIF4B", "value": "−1.21"},
      {"measurement": "TrlEff", "setting": "gene EVPL", "value": 0.30},
      {"measurement": "TrlEff", "setting": "gene FAM83H", "value": 0.71},
      {"measurement": "TrlEff", "setting": "gene FAM128B", "value": 0.27},
      {"measurement": "TrlEff", "setting": "gene FASN", "value": 0.47},
      {"measurement": "TrlEff", "setting": "gene GAPDH", "value": "−0.27"},
      {"measurement": "TrlEff", "setting": "gene GLTSCR2", "value": "−0.68"},
      {"measurement": "TrlEff", "setting": "gene GNB2L1", "value": "−0.77"},
      {"measurement": "Rapamycin TrlEff", "setting": "gene GTPBP3", "value": 1.56},
      {"measurement": "TrlEff", "setting": "gene HNRNPA1", "value": "−0.86"},
      {"measurement": "TrlEff", "setting": "gene HSPA8", "value": "−0.46"},
      {"measurement": "TrlEff", "setting": "gene IMPDH2", "value": "−0.39"},
      {"measurement": "TrlEff", "setting": "gene LAMA5", "value": 0.87},
      {"measurement": "TrlEff", "setting": "gene LMF2", "value": 0.39},
      {"measurement": "Rapamycin TrlEff", "setting": "gene MAPK6", "value": "−2.43"},
      {"measurement": "Rapamycin TrlEff", "setting": "gene MAPKAPK2", "value": 1.50},
      {"measurement": "TrlEff", "setting": "gene MTA1", "value": "−0.05"},
      {"measurement": "TrlEff", "setting": "gene NCLN", "value": 0.67},
      {"measurement": "Rapamycin TrlEff", "setting": "gene NFATC21P", "value": 1.54},
      {"measurement": "Rapamycin TrlEff", "setting": "gene NR2F1", "value": 1.94},
      {"measurement": "TrlEff", "setting": "gene PABPC1", "value": "−1.44"},
      {"measurement": "TrlEff", "setting": "gene PABPC4", "value": "−0.80"},
      {"measurement": "TrlEff", "setting": "gene PACS1", "value": 0.04},
      {"measurement": "TrlEff", "setting": "gene PFDN5", "value": "−0.51"},
      {"measurement": "TrlEff", "setting": "gene PGLS", "value": 0.20},
      {"measurement": "TrlEff", "setting": "gene PGM1", "value": "−0.55"},
      {"measurement": "TrlEff", "setting": "gene PNKP", "value": 0.74},
      {"measurement": "Rapamycin TrlEff", "setting": "gene PRKD3", "value": "−1.72"},
      {"measurement": "TrlEff", "setting": "gene PTGES2", "value": 0.52},
      {"measurement": "TrlEff", "setting": "gene RABGGTB", "value": "−0.84"},
      {"measurement": "Rapamycin TrlEff", "setting": "gene RBPJ", "value": "−1.58"},
      {"measurement": "TrlEff", "setting": "gene RPL3", "value": "−1.08"},
      {"measurement": "TrlEff", "setting": "gene RPL4", "value": "−0.85"},
      {"measurement": "TrlEff", "setting": "gene RPL7", "value": "−1.06"},
      {"measurement": "TrlEff", "setting": "gene RPL7A", "value": "−0.74"},
      {"measurement": "TrlEff", "setting": "gene RPL9", "value": "−1.00"},
      {"measurement": "TrlEff", "setting": "gene RPL10", "value": "−0.79"},
      {"measurement": "TrlEff", "setting": "gene RPL10A", "value": "−0.94"},
      {"measurement": "TrlEff", "setting": "gene RPL11", "value": "−1.08"},
      {"measurement": "TrlEff", "setting": "gene RPL12", "value": "−0.94"},
      {"measurement": "TrlEff", "setting": "gene RPL13", "value": "−0.38"},
      {"measurement": "TrlEff", "setting": "gene RPL15", "value": "−0.51"},
      {"measurement": "TrlEff", "setting": "gene RPL18A", "value": "−0.82"},
      {"measurement": "TrlEff", "setting": "gene RPL19", "value": "−0.66"},
      {"measurement": "TrlEff", "setting": "gene RPL22", "value": "−0.89"},
      {"measurement": "TrlEff", "setting": "gene RPL22L1", "value": "−0.68"},
      {"measurement": "TrlEff", "setting": "gene RPL24", "value": "−0.63"},
      {"measurement": "TrlEff", "setting": "gene RPL26", "value": "−1.11"},
      {"measurement": "TrlEff", "setting": "gene RPL27", "value": "−0.33"},
      {"measurement": "TrlEff", "setting": "gene RPL27A", "value": "−0.96"},
      {"measurement": "Rapamycin TrlEff", "setting": "gene RPL28", "value": "−1.59"},
      {"measurement": "TrlEff", "setting": "gene RPL30", "value": "−0.99"},
      {"measurement": "TrlEff", "setting": "gene RPL31", "value": "−0.62"},
      {"measurement": "TrlEff", "setting": "gene RPL32", "value": "−0.97"},
      {"measurement": "TrlEff", "setting": "gene RPL34", "value": "−1.12"},
      {"measurement": "TrlEff", "setting": "gene RPL36A", "value": "−1.11"},
      {"measurement": "TrlEff", "setting": "gene RPL37A", "value": "−1.02"},
      {"measurement": "TrlEff", "setting": "gene RPL39", "value": "−1.65"},
      {"measurement": "Rapamycin TrlEff", "setting": "gene RPL39", "value": "−2.11"},
      {"measurement": "TrlEff", "setting": "gene RPL41", "value": "−1.15"},
      {"measurement": "TrlEff", "setting": "gene RPLP0", "value": "−0.42"},
      {"measurement": "TrlEff", "setting": "gene RPLP2", "value": "−1.18"},
      {"measurement": "TrlEff", "setting": "gene RPS2", "value": "−0.56"},
      {"measurement": "TrlEff", "setting": "gene RPS3", "value": "−0.92"},
      {"measurement": "TrlEff", "setting": "gene RPS3A", "value": "−1.15"},
      {"measurement": "TrlEff", "setting": "gene RPS4X", "value": "−1.15"},
      {"measurement": "TrlEff", "setting": "gene RPS5", "value": "−0.77"},
      {"measurement": "TrlEff", "setting": "gene RPS7", "value": "−0.76"},
      {"measurement": "TrlEff", "setting": "gene RPS9", "value": "−0.60"},
      {"measurement": "TrlEff", "setting": "gene RPS12", "value": "−1.22"},
      {"measurement": "TrlEff", "setting": "gene RPS13", "value": "−0.82"},
      {"measurement": "TrlEff", "setting": "gene RPS14", "value": "−0.60"},
      {"measurement": "TrlEff", "setting": "gene RPS15", "value": 0.03},
      {"measurement": "TrlEff", "setting": "gene RPS15A", "value": "−0.96"},
      {"measurement": "TrlEff", "setting": "gene RPS19", "value": "−0.74"},
      {"measurement": "TrlEff", "setting": "gene RPS20", "value": "−1.35"},
      {"measurement": "TrlEff", "setting": "gene RPS21", "value": "−0.60"},
      {"measurement": "TrlEff", "setting": "gene RPS25", "value": "−0.89"},
      {"measurement": "TrlEff", "setting": "gene RPS27", "value": "−1.54"},
      {"measurement": "Rapamycin TrlEff", "setting": "gene RPS27", "value": "−1.55"},
      {"measurement": "TrlEff", "setting": "gene RPS27A", "value": "−0.89"},
      {"measurement": "TrlEff", "setting": "gene RPS28", "value": "−0.80"},
      {"measurement": "Rapamycin TrlEff", "setting": "gene SDCCAG10", "value": "−1.50"},
      {"measurement": "TrlEff", "setting": "gene SLC19A1", "value": 0.23},
      {"measurement": "TrlEff", "setting": "gene TKT", "value": "−0.11"},
      {"measurement": "TrlEff", "setting": "gene TPT1", "value": "−1.22"},
      {"measurement": "TrlEff", "setting": "gene TSC2", "value": 0.34},
      {"measurement": "TrlEff", "setting": "gene UBA52", "value": "−0.22"},
      {"measurement": "Rapamycin TrlEff", "setting": "gene UBTD2", "value": "−1.64"},
      {"measurement": "Rapamycin TrlEff", "setting": "gene UCHL5", "value": "−1.56"},
      {"measurement": "Rapamycin TrlEff", "setting": "gene VHL", "value": 1.67},
      {"measurement": "TrlEff", "setting": "gene VIM", "value": "−0.40"},
      {"measurement": "TrlEff", "setting": "gene YB1", "value": "−0.59"}
    ]}
  ]
}
